Measurements as given in patent publication US11396517B1, “Exo-aza spiro inhibitors of menin-MLL interaction” (Janssen Pharmaceutica NV, priority 2017, dated 2022).
Like-named read-outs stand apart in the source and are kept apart here.

Legend:
MV-4-11 = assay: Proliferation assay A (spheroid assay) MV-4-11; format: cell-based, human; details: MV-4-11 cells, 8 d, AUC of confluence against time, absolute IC50, read-out: (3a) Spheroid assay MV-4-11 (IC50(μM)) Assay A
Procedure: 3a) Proliferation Assay A
The anti-proliferative effect of menin/MLL protein/protein interaction inhibitor test compounds was assessed in human leukemia cell lines. The cell lines MV-4-11 and MOLM14 harbor MILL translocations and express the MILL fusion proteins MLL-AF4 and MLL-AF9, respectively, as well as the wildtype protein from the second allele. […] K562 was used as a control cell line containing two MLL wildtype alleles in order to exclude compounds that display general cytotoxic effects.
MV-4-11 and MOLM14 were cultured in RPMI-1640 (Sigma Aldrich) supplemented with 10% fetal bovine serum (HyClone), 2 mM L-glutamine (Sigma Aldrich) and 50 μg/ml gentamycin (Gibco). K562 were propagated in RPMI-1640 (Sigma Aldrich) supplemented with 20% fetal bovine serum (HyClone), 2 mM L-glutamine (Sigma Aldrich) and 50 μg/ml gentamycin (Gibco).
In order to assess the anti-proliferative effects, 1,500 MV-4-11, 300 MOLM14 or 750 K562 cells were seeded in 200 μl media per well in 96-well round bottom, ultra-low attachment plates (Costar, catalogue number 7007). Cell seeding numbers were chosen based on growth curves to ensure linear growth throughout the experiment. Test compounds were added at different concentrations and the DMSO content was normalized to 0.3%. Cells were incubated for 8 d at 37° C. and 5% CO2. Spheroid like growth was monitored in real-time by live-cell imaging (IncuCyteZOOM, Essenbio, 4× objective) acquiring one image every four hours for 8 d. Confluence (%) as a measure of spheroid size was determined using an integrated analysis tool.
In order to determine the cumulative effect of the test compounds over time, the area under the curve (AUC) in a plot of confluence against time was calculated. Confluence at the beginning of the experiment (t=0) was used as baseline for the AUC calculation.
Absolute IC50 values were calculated according to the following procedure: % Control=(AUC sample/AUC control)*100
AUC control mean AUC of control values (cells without compound/DMSO as vehicle control)
A non-linear curve fit was applied using the least squares (ordinary) fit method to the plot of % control versus compound concentration. Based on this, the absolute IC50 value (half maximal inhibitory concentration of the test compound causing an anti-proliferative effect of 50% relative to the vehicle control) was calculated.

menin = molecular target: T1, menin (Homo sapiens, UniProt O00255, T541A); assay: Menin/MLL homogenous time-resolved fluorescence (HTRF) assay; format: binding
T1 construct: Menin (a.a. 1-610-6×his tag)
T1 sequence (O00255 with tags, fused parts or gaps T541A): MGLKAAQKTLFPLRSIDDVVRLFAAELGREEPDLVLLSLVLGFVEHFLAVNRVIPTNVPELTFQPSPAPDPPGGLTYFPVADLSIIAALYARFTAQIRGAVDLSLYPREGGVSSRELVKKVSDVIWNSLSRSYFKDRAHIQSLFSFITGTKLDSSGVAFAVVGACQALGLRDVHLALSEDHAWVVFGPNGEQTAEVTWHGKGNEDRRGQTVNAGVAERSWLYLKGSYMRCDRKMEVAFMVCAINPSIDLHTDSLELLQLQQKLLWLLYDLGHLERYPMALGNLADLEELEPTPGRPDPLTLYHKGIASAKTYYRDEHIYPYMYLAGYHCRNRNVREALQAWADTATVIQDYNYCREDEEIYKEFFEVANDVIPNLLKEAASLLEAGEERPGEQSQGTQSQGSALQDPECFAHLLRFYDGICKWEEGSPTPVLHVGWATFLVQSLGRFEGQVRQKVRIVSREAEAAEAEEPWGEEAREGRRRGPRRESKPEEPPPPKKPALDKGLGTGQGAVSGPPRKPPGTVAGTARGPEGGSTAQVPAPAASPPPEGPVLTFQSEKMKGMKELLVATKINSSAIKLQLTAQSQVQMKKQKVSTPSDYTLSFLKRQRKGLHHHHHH
Summary of the method: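 Displacement of 75 nM FITC-MBM1 from terbium-cryptate-labeled His-tagged menin 1-610 ([…]) was read as the 520/490 nm HTRF ratio. Compound (11-point, 3-fold series) got 5 min with menin before peptide, then 15 min at ambient; 0.5% DMSO, Tris pH 7.5.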

MOLM14 = assay: Proliferation assay B (spheroid assay) MOLM14; format: cell-based, human; details: Homo sapiens, MOLM-14, 192 h, MOLM14 cells, confluence at day 8, absolute IC50; read-out: (3b) Spheroid assay MOLM14 (IC50(μM)) Assay B
Summary of the method: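 IC50 derived from % effect on day-8 imaged confluence, scaled between DMSO-treated cells (high) and 1 μM staurosporine (low), using a variable-slope fit constrained 0-100%. Cells seeded as spheroids in ultra-low-attachment plates and exposed to compound for 8 days, 0.3% DMSO.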

[1] = location 2, read-out: (2) location 2 Menin HTRF assay (IC50 (nM))
[2] = location 1, read-out: (2) location 1 Menin HTRF assay (IC50 (nM))

Structure (SMILES) | IC50 (MV-4-11; Homo sapiens, MV4-11, 192 h) | IC50 (menin; [1]) | IC50 (MV-4-11) | IC50 (menin; [2]) | IC50 (MOLM14)
CS(=O)(=O)Nc1ccc(C(=O)NC2CC3(CCN(c4ncnc5sc(CC(F)(F)F)cc45)C3)C2)cc1 (stereo not drawn) [Compound 27] | 11.9 µM | 585 nM |  |  | 
CNS(=O)(=O)c1ccc(N[C@H]2CCC3(C2)CN(c2ncnc4sc(CC(F)(F)F)cc24)C3)cc1 (single isomer, unassigned) [Compound 291] | > 3.75 µM | 51.9 nM |  |  | 
O=S(=O)(NC1CC2(CCN(c3ncnc4sc(CC(F)(F)F)cc34)C2)C1)c1ccccc1 (mixture of isomers) [Compound 22] | 3.55 µM | 450 nM |  |  | 
Cn1c(=O)[nH]c2cc(NC3CC4(CCN(c5ncnc6sc(CC(F)(F)F)cc56)C4)C3)ccc21 (stereo not drawn) [Compound 89] | 2.73 µM | 27.8 nM |  |  | 
CN(C)CC1CC2(CCN(c3ncnc4sc(CC(F)(F)F)cc34)C2)C1 (mixture of isomers) [Compound 196] | 3.91 µM | 133 nM |  |  | 
Nc1nc(N2CCC3(CC(NCc4ccccc4)C3)C2)c2cc(CC(F)(F)F)sc2n1 (mixture of isomers) [Compound 263] | 1.23 µM | 47.3 nM |  |  | 
CN(CC1CC2(CCN(c3ncnc4sc(CC(F)(F)F)cc34)C2)C1)c1ccccc1 (stereo not drawn) [Compound 41] | 10 µM | 339 nM |  |  | 
N#CCc1ccc(NC2CC3(CCN(c4ncnc5sc(CC(F)(F)F)cc45)C3)C2)cc1Cl (single isomer, unassigned) [Compound 211] | 2.13 µM | 18.2 nM |  |  | 
O=C1Cc2ccc(NC3CCC4(C3)CN(c3ncnc5sc(CC(F)(F)F)cc35)C4)cc2N1 (stereo not drawn) [Compound 292] | > 3.75 µM | 81.3 nM |  |  | 
N#CCc1ccc(NC2CC3(CCN(c4nc(N)nc5sc(CC(F)(F)F)cc45)C3)C2)cc1 (single isomer, unassigned) [Compound 378] | > 3.75 µM | 42.9 nM |  |  | 
FC(F)(F)Cc1cc2c(N3CC4(CCC(Nc5ccccc5)C4)C3)ncnc2s1 (stereo not drawn) [Compound 7] | 13.5 µM | 658 nM |  |  | 
CNS(=O)(=O)c1ccc(NC2CCC3(C2)CN(c2ncnc4sc(CC(F)(F)F)cc24)C3)cc1 (racemic) [Compound 279] | > 3.75 µM | 82.9 nM |  |  | 
FC(F)(F)Cc1cc2c(N3CCC4(CC(CNc5ccccc5)C4)C3)ncnc2s1 (stereo not drawn) [Compound 38] | 5.21 µM | 447 nM |  |  | 
O=C1Cc2ccc(N[C@@H]3CCC4(C3)CN(c3ncnc5sc(CC(F)(F)F)cc35)C4)cc2N1 (single isomer, unassigned) [Compound 293] | 2.77 µM | 11 nM |  |  | 
CNc1nc(N2CCC3(CC(Nc4ccccc4)C3)C2)c2cc(CC(F)(F)F)sc2n1 (single isomer, unassigned) [Compound 269] | > 3.75 µM | 78.6 nM |  |  | 
FC(F)(F)Cc1cc2c(N3CCC4(CC(Nc5ccc(-c6cc[nH]n6)cc5)C4)C3)ncnc2s1 (stereo not drawn) [Compound 92] | 0.48 µM | 5.3 nM |  |  | 
O=c1[nH]c2ccc(N[C@@H]3CCC4(C3)CN(c3ncnc5sc(CC(F)(F)F)cc35)C4)cc2[nH]1 (single isomer, unassigned) [Compound 299] | > 3.75 µM | 94.8 nM |  |  | 
N#CCc1ccc(NC2CC3(CCN(c4ncnc5sc(CC(F)(F)F)cc45)C3)C2)c(Cl)c1 (single isomer, unassigned) [Compound 208] | 3.16 µM | 37.7 nM |  |  | 
FC(F)(F)Cc1cc2c(N3CCC4(CCC(NCc5ccccc5)CC4)C3)ncnc2s1 (single isomer, unassigned) [Compound 2] | 1.64 µM | 84.5 nM |  | 91.2 nM | 
FC(F)(F)Cc1cc2c(N3CC[C@]4(CC[C@@H](NCc5ccccc5)C4)C3)ncnc2s1 (single isomer, unassigned) [Compound 5] |  | 63.8 nM | 1.69 µM | 304 nM | 
FC(F)(F)Cc1cc2c(N3CCC4(CC(Nc5ccccc5)C4)C3)ncnc2s1 (mixture of isomers) [Compound 35] | 4.9 µM | 48.6 nM |  |  | 

Next, values leading:

IC50 (MV-4-11; Homo sapiens, MV4-11, 192 h) | IC50 (menin; [1]) | IC50 (MV-4-11) | IC50 (menin; [2]) | IC50 (MOLM14) | Structure (SMILES)
1.26 µM | 8.8 nM |  |  |  | CNS(=O)(=O)c1ccc(NC2CC3(CCN(c4ncnc5sc(CC(F)(F)F)cc45)C3)C2)cc1 (mixture of isomers) [Compound 316]
1.76 µM | 32.3 nM |  |  |  | FC(F)(F)Cc1cc2c(N3CC4(CCC(Nc5ccc(-c6cc[nH]n6)cc5)C4)C3)ncnc2s1 (stereo not drawn) [Compound 301]
 | 27.2 nM | > 3.75 µM |  |  | Nc1nc(N2CCC3(CC(Nc4ccc5[nH]c(=O)oc5c4)C3)C2)c2cc(CC(F)(F)F)sc2n1 (single isomer, unassigned) [Compound 385]
 | 915 nM | > 3.75 µM |  |  | O=c1[nH]c2ccc(NC3CC4(CCN(c5ncnc6sc(CC(F)(F)F)cc56)C4)C3)cc2[nH]1 (single isomer, unassigned) [Compound 321]
3.71 µM | 41.6 nM |  |  |  | O=c1[nH]c2ccc(NC3CC4(CCN(c5ncnc6sc(CC(F)(F)F)cc56)C4)C3)cc2[nH]1 (single isomer, unassigned) [Compound 320]
1.8 µM | 17.8 nM |  |  |  | CNc1nc(N2CCC3(CC(Nc4ccc5oc(=O)[nH]c5c4)C3)C2)c2cc(CC(F)(F)F)sc2n1 (mixture of isomers) [Compound 396]
3.66 µM | 26.4 nM |  |  |  | O=c1[nH]c2ccc(NC3CC4(CCN(c5ncnc6sc(CC(F)(F)F)cc56)C4)C3)cc2o1 (single isomer, unassigned) [Compound 323]
2.6 µM | 68.3 nM |  |  |  | CNc1nc(N2CCC3(CC(Nc4ccc5[nH]c(=O)[nH]c5c4)C3)C2)c2cc(CC(F)(F)F)sc2n1 (mixture of isomers) [Compound 393]
2.56 µM | 509 nM |  |  |  | FC(F)(F)Cc1cc2c(N3CC4(CCC(Nc5ccc(-c6cn[nH]c6)cc5)C4)C3)ncnc2s1 (stereo not drawn) [Compound 302]
1.26 µM | 19.6 nM |  |  |  | CC(=O)Nc1ccc(NC2CC3(CCN(c4ncnc5sc(CC(F)(F)F)cc45)C3)C2)cc1 (mixture of isomers) [Compound 330]
0.91 µM | 20.1 nM |  |  |  | FC(F)(F)Cc1cc2c(N3CCC4(CC(Nc5ccc(-c6cn[nH]c6)cc5)C4)C3)ncnc2s1 (mixture of isomers) [Compound 326]
 | 43.7 nM |  |  | > 3.75 µM | CS(=O)(=O)N1CCN(CC(O)c2ccc(NC3CC4(CCN(c5ncnc6sc(CC(F)(F)F)cc56)C4)C3)cc2)CC1 (stereo not drawn) [Compound 354]
 | 13.8 nM |  |  | > 3.75 µM | CNc1nc(N2CCC3(CC(Nc4ccc5[nH]c(=O)[nH]c5c4)C3)C2)c2cc(CC(F)(F)F)sc2n1 (single isomer, unassigned) [Compound 394]
 | 1020 nM |  |  | > 3.75 µM | COC[C@H]1COCCN1C(=O)c1ccc(NC2CC3(CCN(c4ncnc5sc(CC(F)(F)F)cc45)C3)C2)cc1 (single isomer, unassigned) [Compound 407]
